From ChEMBL document CHEMBL5209578, “Flow cytometry transport assay for SLC2A2 using HEK293 JumpIN TRex SLC2A2 WT-OE cells” (2022) come the findings set out here.

The IC50 is the concentration that inhibits the measured activity by half. A high value points to weaker potency. For orientation: EC50 means the concentration giving half of the maximal effect.

In the assay the target is T1, Solute carrier family 2, facilitated glucose transporter member 2 (Homo sapiens, UniProt P11168).
T1 sequence (P11168 whole entry): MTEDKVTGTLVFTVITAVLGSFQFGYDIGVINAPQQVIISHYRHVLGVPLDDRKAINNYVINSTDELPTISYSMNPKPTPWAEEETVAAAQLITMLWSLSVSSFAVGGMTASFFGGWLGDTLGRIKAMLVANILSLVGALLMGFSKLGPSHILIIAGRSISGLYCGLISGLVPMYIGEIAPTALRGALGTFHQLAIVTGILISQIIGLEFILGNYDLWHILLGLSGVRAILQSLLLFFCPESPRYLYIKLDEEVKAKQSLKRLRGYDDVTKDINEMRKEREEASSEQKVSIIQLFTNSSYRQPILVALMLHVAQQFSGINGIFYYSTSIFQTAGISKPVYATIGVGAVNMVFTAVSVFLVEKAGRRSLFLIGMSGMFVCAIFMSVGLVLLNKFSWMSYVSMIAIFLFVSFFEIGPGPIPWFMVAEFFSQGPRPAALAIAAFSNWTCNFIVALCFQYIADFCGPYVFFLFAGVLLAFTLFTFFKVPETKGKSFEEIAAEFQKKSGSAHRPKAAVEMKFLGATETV
Description: Inhibition of the Glucose Transporter (GLUT2, SLC2A2) as assessed by a FRET based flow cytometry assay using a genetically-encoded biosensor for measuring free glucose (FLII12Pglu-700uDelta6) in HEK293 JumpIN TRex SLC2A2 WT-OE cells (PubChem AID: 1794829). It counts as functional, cell-based.

Bounds are passed on as bounds.

For the compound `O=C(Oc1cccc(F)c1OC(=O)c1cccc(O)c1)c1cccc(O)c1`, the IC50 was > 10 µM.
Still for that read-out and setting: under `C=C1[C@@H](C)[C@H]2[C@H](Cc3ccccc3)NC(=O)[C@]23OC(=O)/C=C/[C@H](O)CCC[C@@H](C)C/C=C/[C@H]3[C@@H]1O` [CYTOCHALASIN B] stands > 10 µM.
`OC[C@H]1OC(O)[C@H](O)[C@@H](O)[C@@H]1O` (stereo partly drawn) [DEXTROSE] returned a concentration giving a half-maximal response (EC50) of 527 µM.
